Each structure is given as a SMILES string. Where two headings read alike, the source gives them in different places.

The subject of series [1] is epimastigotes of T. cruzi Arequipa strain. As to the kind of experiment: Screening against extracellular epimastigotes (resazurin). Type of series: cell-based, Trypanosoma cruzi. The following applies: for IC50: Trypanosoma cruzi. The protocol: Trypanocidal activity against epimastigotes of T. cruzi Arequipa strain (MHOM/Pe/2011/Arequipa, discrete typing unit V) was tested as previously described. In short, 5 × 10^5 epimastigotes·mL^−1 were treated by adding the tested compounds at a concentration range from 100 to 0.2 µM in 96-well microplates (200 µL·well^−1) for 48 h. Subsequently, resazurin sodium salt (Sigma-Aldrich) was added to be incubated for further 24 h. Finally, the absorbance was measured, and the trypanocidal activity was expressed as the IC50 (inhibitory concentration 50) using GraphPad Prism 6 software. Each compound concentration was tested in triplicate in three independent experiments.

For series [2], the system named is Trypanosoma cruzi intracellular amastigotes. As to the kind of experiment: Screening against intracellular amastigotes in Vero cells (Giemsa counting). The series is classed as cell-based. The method, then:
(§1) Trypanocidal activity against amastigotes was determined according to the literature reported previously. […]. […] Each compound concentration was tested in triplicate in four separate determinations.

Series [3] relates to Trypanosoma cruzi bloodstream trypomastigotes (BTs). Briefly: Screening against bloodstream trypomastigotes (resazurin). Type of series: cell-based. For orientation: Resazurin is reduced to fluorescent resorufin, in cell work by metabolically active cells.
The test system of series [4] is Trypanosoma cruzi amastigotes in Vero cells. Briefly: Infection rate and amastigotes per Vero cell over 10 days. Type of series: cell-based. Particulars: IC25 concentrations, measured at 2 days intervals for 10 days. The protocol: Before going ahead on in vivo trials, the in vitro infection rate and the average number of amastigotes per Vero cell were also measured at 2 days intervals for 10 days after treating the infected cultures with BZN and potential candidates (8, 10, and 15) (Figure 1) at ICH25 concentrations resulting from amastigotes screening. […]. Fast-acting drugs are urgently needed, and this feature is an additional advantage since they can eliminate the parasite in a few doses.
as §1
Figure 1 (A) Percentage of infected Vero cells and (B) number of amastigotes of Trypanosoma cruzi per Vero cell exposed to benznidazole (BZN), 8, 10 and 15. Values constitute means of three separate determinations ± standard deviation. * Significant differences between untreated and treated parasites for α = 0.05. dpi, days post-infection.

Another series has as its system Trypanosoma cruzi. Briefly: PCR of seven organs/tissues of treated BALB/c mice (Spliced Leader sequence). The series is classed as in vivo. The method, then:
To assess the efficacy of potential candidates by confirming the absence of infection in the target locations, PCR was carried out at the end of the in vivo timeline (Figure 2C). PCR was positive in seven organs/tissues for the untreated (control) mice groups in both phases, showing the presence of the typical nested amastigotes of the chronic CD.
Infection was carried out by intraperitoneal inoculation of 5 × 10^5 BTs of T. cruzi per mouse in 0.2 mL PBS [56]. The mice were treated by oral route (~200 µL) once daily for 5 consecutive days. The treatment for mice treated in the acute and chronic phases began when the infection was confirmed (9th day post-infection (dpi)) and was established that the animals had entered the chronic phase (100th dpi), respectively.
The mice were divided into six groups (n = 3 per group): 0, negative control group (uninfected and untreated mice); I, positive control group (infected and untreated mice); II, BZN group (mice infected and treated with BZN); III, 8 group (mice infected and treated with 8); IV, 10 group (mice infected and treated with 10); V, 15 group (mice infected and treated with 15). The tested compounds and BZN were prepared at 2 mg·mL^−1 in an aqueous suspension vehicle containing 5% (v/v) DMSO and 0.5% (w/v) hydroxypropyl methylcellulose, as previously reported. Therefore, doses of 20 mg·kg^−1 per day were administered for 5 consecutive days, and vehicle only was administered in the negative and positive control groups.
(§2) All in vivo assays for the evaluation of compounds in the acute and chronic CD (Scheme 1)—monitoring of parasitemia, immunosuppression, PCR [59, 60], ELISA [56], and clinical analysis [56]—were performed as previously described. PCR was based on the Spliced Leader (SL) intergenic region sequence of T. cruzi (for detailed description, see literature reported previously).
Figure 2 (A) Parasitemia profiles of each group of mice infected with Trypanosoma cruzi and treated during the acute Chagas disease over a period of 55 days: control (untreated), benznidazole (BZN), 8, 10 and 15. Treatment days are represented in grey. […]. (B) Parasitemia reactivation by fresh blood in the chronic Chagas disease after the immunosuppression cycles for each group of mice treated during the acute and chronic phases of the disease: control (untreated), benznidazole (BZN), 8, 10, and 15. […]. (C) PCR analysis of seven organs/tissues with the Trypanosoma cruzi Spliced Leader (SL) intergenic region sequence in the chronic Chagas disease for each group of mice treated during the acute and chronic phases of the disease: (a) control (untreated), (b) benznidazole, (c) 8, (d) 10, and (e) 15.

Series [5] is classed as in vivo. Particulars: BALB/c mice, 20 mg/kg per day for 5 days. The method, then: Finally, biochemical analyses were performed to assess the toxicity associated to the treatment of compound 8. Kidney, heart and liver biochemical markers were measured, including values from uninfected and BZN-treated mice (Table S2). […] The low toxicity allows compound 8 to be tested at higher doses, establishing an improved treatment schedule based on pharmacokinetics in order to reach a total parasite clearance.
as §2

Series [6] relates to epimastigotes of T. cruzi Arequipa. As to the kind of experiment: 1H NMR analysis of excreted metabolites. The following applies: IC25 concentrations, 72 h. Type of series: cell-based, Trypanosoma cruzi. The protocol: 5 × 10^5 epimastigotes·mL^−1 of T. cruzi Arequipa were treated by adding the tested compounds at IC25 concentrations in 25 cm^2 cell culture flasks at 28 °C for 72 h. Untreated controls were also included. Cultures were then centrifuged and filtered, and the metabolites of the supernatants were analyzed using a ^1H NMR spectrometer (VARIAN DIRECT DRIVE 500 MHz […]) with AutoX probe, D2O as solvent and 2,2-dimethyl-2-silapentane-5-sulphonate as the reference signal. Chemical shifts were expressed in parts per million (ppm), and analyses were conducted as previously reported.

Series [7] has as its target T1, human erythrocytes CuZn-SOD (Homo sapiens, UniProt P00441).
T1 construct: commercial Cu/Zn-SOD from human erythrocytes (Sigma-Aldrich); purchased Sigma-Aldrich; host or cells: human erythrocytes
As to the kind of experiment: SOD enzymatic inhibition, CuZn-SOD. The following applies: 100 to 0.1 µM, read-out: CuZn-SOD IC50 (in brackets). The series is classed as biochemical. The protocol: Excreted Fe-SOD protein—obtained and quantified as previously described [64]—and commercial Cu/Zn-SOD from human erythrocytes (Sigma-Aldrich) were exposed to the tested compounds at a concentration range from 100 to 0.1 µM to determine in vitro activities using the method previously described.

T1 sequence (P00441 whole entry): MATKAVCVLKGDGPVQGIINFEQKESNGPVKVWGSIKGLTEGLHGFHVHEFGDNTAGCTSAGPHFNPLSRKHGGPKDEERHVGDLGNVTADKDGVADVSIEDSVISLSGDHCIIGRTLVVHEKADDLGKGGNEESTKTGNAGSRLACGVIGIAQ

Take `FC(F)(F)c1ccc(C[Se][Se]Cc2ccc(C(F)(F)F)cc2)cc1` [compound 8]: the “Selectivity Index Epimast.” value in series [1] (IC50 Vero cells/IC50 epimastigotes) is given as 23. For the same compound, the half-maximal inhibitory concentration (IC50) in series [1] (Table 1, T. cruzi epimastigotes, 48 h treatment + 24 h resazurin, read-out: Activity IC50 Epimast.) is 1900 ± 100 nM; in series [1] (Table S1, cultured epimastigote form of T. cruzi, read-out: Activity IC50) it was at most 10000 nM; in series [2] (Trypanosoma cruzi, Table 1, intracellular amastigotes in Vero cells, 72 h, read-out: Activity IC50 Amast.) it was 800 ± 200 nM; in series [3] (Trypanosoma cruzi, Table 1, bloodstream trypomastigotes, 24 h treatment + 4 h resazurin, read-out: Activity IC50 Trypomast.) it was 1500 ± 300 nM; in series [7], over 100000 nM. Moreover, the “Selectivity Index Amast.” value in series [2] (IC50 Vero cells/IC50 amastigotes) is given as 55. Moreover, the “Selectivity Index Trypomast.” value in series [3] (IC50 Vero cells/IC50 trypomastigotes) came out at 30. Also, the “infection rate and average number of amastigotes per Vero cell” value in series [4] is “decrease in both infection rate and number of amastigotes per cell in a time-dependent manner”. Also, the results for the “negative PCR (parasite-free locations)” value in the series with Trypanosoma cruzi (mice treated in acute CD) and in the series with Trypanosoma cruzi (mice treated in chronic CD) were 3/7 and 4/7, respectively. Moreover, the “death and body mass loss after treatment” value in series [5] is given as “none of the mice died nor lost more than 10% body mass”. For the same compound, the “kidney, heart and liver biochemical markers” value in series [5] is “disturbed 2 days after treatment”. Besides, the “variation of excreted metabolites versus untreated parasites” value in series [6] is under 10%.

A word on the IC50: it is the point on the concentration scale where inhibition reaches its midpoint.
